{"source": "patent US11053204B2", "about": "“Pyrimidinyloxy benzene derivatives as herbicides” (FMC Corporation, priority 2015, dated 2021)", "assay_type_in_all_cases": "in vivo", "key": {"[1]": {"tested_on": "oilseed rape (Brassica napus)", "assay": "Test C preemergence, plant response rating", "conditions": "Preemergence", "in_short": "(§1)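 Visual injury score, 0 = no effect, 100 = complete control, assigned against untreated controls after 13 to 15 d in the greenhouse. Compounds were applied in a surfactant-containing non-phytotoxic solvent mix, preemergence to seeded loam/sand or silt loam soil, or postemergence to 1- to 4-leaf plants (2 to 18 cm).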"}, "[2]": {"tested_on": "nutsedge, yellow (yellow nutsedge, Cyperus esculentus)", "assay": "Test C preemergence, plant response rating", "conditions": "Preemergence", "in_short": "as §1"}, "[3]": {"tested_on": "crabgrass, large (large crabgrass, Digitaria sanguinalis)", "assay": "Test C preemergence, plant response rating", "conditions": "Preemergence", "in_short": "as §1"}, "soybean (Glycine max)": {"tested_on": "soybean (Glycine max)", "assay": "Test C preemergence, plant response rating", "conditions": "Preemergence", "in_short": "as §1"}, "[4]": {"tested_on": "ryegrass, Italian (Italian ryegrass, Lolium multiflorum)", "assay": "Test C preemergence, plant response rating", "conditions": "Preemergence", "in_short": "as §1"}, "[5]": {"tested_on": "velvetleaf (Abutilon theophrasti)", "assay": "Test C preemergence, plant response rating", "conditions": "Preemergence", "in_short": "as §1"}, "[6]": {"tested_on": "waterhemp (common waterhemp, Amaranthus rudis)", "assay": "Test C preemergence, plant response rating", "conditions": "Preemergence", "in_short": "as §1"}, "corn (Zea mays)": {"tested_on": "corn (Zea mays)", "assay": "Test C preemergence, plant response rating", "conditions": "Preemergence", "in_short": "as §1"}, "[7]": {"tested_on": "morningglory (Ipomoea coccinea)", "assay": "Test C preemergence, plant response rating", "conditions": "Preemergence", "in_short": "as §1"}, "[8]": {"tested_on": "foxtail, giant (giant foxtail, Setaria faberii)", "assay": "Test C preemergence, plant response rating", "conditions": "Preemergence", "in_short": "as §1"}, "[9]": {"tested_on": "lambsquarters (Chenopodium album)", "assay": "Test C preemergence, plant response rating", "conditions": "Preemergence", "in_short": "as §1"}, "[10]": {"tested_on": "ragweed (common ragweed, Ambrosia elatior)", "assay": "Test C preemergence, plant response rating", "conditions": "Preemergence", "in_short": "as §1"}, "[11]": {"tested_on": "wheat (winter wheat, Triticum aestivum)", "assay": "Test C preemergence, plant response rating", "conditions": "Preemergence", "in_short": "as §1"}, "[12]": {"tested_on": "blackgrass (Alopecurus myosuroides)", "assay": "Test C preemergence, plant response rating", "conditions": "Preemergence", "in_short": "as §1"}, "[13]": {"tested_on": "giant foxtail (Setaria faberii)", "assay": "Test A preemergence, visual injury rating", "conditions": "0 to 100 scale (0 no effect, 100 complete control)", "in_short": "(§2)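 Compounds in non-phytotoxic solvent with surfactant applied as soil spray preemergence, or postemergence to plants 2-10 cm at one- to two-leaf stage, in loam/sand. After approximately 10 days in greenhouse, injury rated visually versus untreated controls, 0 (no effect) to 100 (complete control).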"}, "[14]": {"tested_on": "barnyardgrass (Echinochloa crus-galli)", "assay": "Test A preemergence, visual injury rating", "conditions": "0 to 100 scale (0 no effect, 100 complete control)", "in_short": "as §2"}, "[15]": {"tested_on": "ragweed (common ragweed, Ambrosia elatior)", "assay": "Test A preemergence, visual injury rating", "conditions": "0 to 100 scale (0 no effect, 100 complete control)", "in_short": "as §2"}, "[16]": {"tested_on": "Italian ryegrass (Lolium multiflorum)", "assay": "Test A preemergence, visual injury rating", "conditions": "0 to 100 scale (0 no effect, 100 complete control)", "in_short": "as §2"}}, "data": [{"smiles": "O=C(CCCC(F)(F)F)c1c(Oc2ncc(Cl)cn2)cccc1C(F)(F)F", "note": "[Compound 125]", "values": [{"measurement": "Plant response rating, Oilseed Rape", "setting": "[1]; 125 g ai/ha, scale of 0 to 100", "result": 80}, {"measurement": "Plant response rating, Oilseed Rape", "setting": "[1]; 31 g ai/ha, scale 0 to 100", "result": 5}, {"measurement": "Plant response rating, Oilseed Rape", "setting": "[1]; 62 g ai/ha, scale 0 to 100", "result": 50}, {"measurement": "Plant response rating, Nutsedge, Yellow", "setting": "[2]; 125 g ai/ha, scale of 0 to 100", "result": 5}, {"measurement": "Plant response rating, Nutsedge, Yellow", "setting": "[2]; 31 g ai/ha, scale 0 to 100", "result": 0}, {"measurement": "Plant response rating, Nutsedge, Yellow", "setting": "[2]; 62 g ai/ha, scale 0 to 100", "result": 0}, {"measurement": "Plant response rating, Crabgrass, Large", "setting": "[3]; 125 g ai/ha, scale of 0 to 100", "result": 100}, {"measurement": "Plant response rating, Crabgrass, Large", "setting": "[3]; 16 g ai/ha, scale 0 to 100", "result": 35}, {"measurement": "Plant response rating, Crabgrass, Large", "setting": "[3]; 31 g ai/ha, scale 0 to 100", "result": 98}, {"measurement": "Plant response rating, Crabgrass, Large", "setting": "[3]; 62 g ai/ha, scale 0 to 100", "result": 100}, {"measurement": "Plant response rating, Soybean", "setting": "soybean (Glycine max); 125 g ai/ha, scale of 0 to 100", "result": 20}, {"measurement": "Plant response rating, Soybean", "setting": "soybean (Glycine max); 31 g ai/ha, scale 0 to 100", "result": 0}, {"measurement": "Plant response rating, Soybean", "setting": "soybean (Glycine max); 62 g ai/ha, scale 0 to 100", "result": 0}, {"measurement": "Plant response rating, Ryegrass, Italian", "setting": "[4]; 125 g ai/ha, scale of 0 to 100", "result": 85}, {"measurement": "Plant response rating, Ryegrass, Italian", "setting": "[4]; 31 g ai/ha, scale 0 to 100", "result": 30}, {"measurement": "Plant response rating, Ryegrass, Italian", "setting": "[4]; 62 g ai/ha, scale 0 to 100", "result": 40}, {"measurement": "Plant response rating, Velvetleaf", "setting": "[5]; 125 g ai/ha, scale of 0 to 100", "result": 65}, {"measurement": "Plant response rating, Velvetleaf", "setting": "[5]; 31 g ai/ha, scale 0 to 100", "result": 5}, {"measurement": "Plant response rating, Velvetleaf", "setting": "[5]; 62 g ai/ha, scale 0 to 100", "result": 60}, {"measurement": "Plant response rating, Waterhemp", "setting": "[6]; 125 g ai/ha, scale of 0 to 100", "result": 100}, {"measurement": "Plant response rating, Waterhemp", "setting": "[6]; 31 g ai/ha, scale 0 to 100", "result": 100}, {"measurement": "Plant response rating, Waterhemp", "setting": "[6]; 62 g ai/ha, scale 0 to 100", "result": 100}, {"measurement": "Plant response rating, Corn", "setting": "corn (Zea mays); 125 g ai/ha, scale of 0 to 100", "result": 5}, {"measurement": "Plant response rating, Corn", "setting": "corn (Zea mays); 16 g ai/ha, scale 0 to 100", "result": 0}, {"measurement": "Plant response rating, Corn", "setting": "corn (Zea mays); 31 g ai/ha, scale 0 to 100", "result": 0}, {"measurement": "Plant response rating, Corn", "setting": "corn (Zea mays); 62 g ai/ha, scale 0 to 100", "result": 5}, {"measurement": "Plant response rating, Morningglory", "setting": "[7]; 125 g ai/ha, scale of 0 to 100", "result": 50}, {"measurement": "Plant response rating, Morningglory", "setting": "[7]; 31 g ai/ha, scale 0 to 100", "result": 10}, {"measurement": "Plant response rating, Morningglory", "setting": "[7]; 62 g ai/ha, scale 0 to 100", "result": 10}, {"measurement": "Plant response rating, Foxtail, Giant", "setting": "[8]; 125 g ai/ha, scale of 0 to 100", "result": 100}, {"measurement": "Plant response rating, Foxtail, Giant", "setting": "[8]; 31 g ai/ha, scale 0 to 100", "result": 85}, {"measurement": "Plant response rating, Foxtail, Giant", "setting": "[8]; 62 g ai/ha, scale 0 to 100", "result": 98}, {"measurement": "Plant response rating, Lambsquarters", "setting": "[9]; 125 g ai/ha, scale of 0 to 100", "result": 95}, {"measurement": "Plant response rating, Lambsquarters", "setting": "[9]; 31 g ai/ha, scale 0 to 100", "result": 30}, {"measurement": "Plant response rating, Lambsquarters", "setting": "[9]; 62 g ai/ha, scale 0 to 100", "result": 60}, {"measurement": "Plant response rating, Ragweed", "setting": "[10]; 125 g ai/ha, scale of 0 to 100", "result": 35}, {"measurement": "Plant response rating, Ragweed", "setting": "[10]; 31 g ai/ha, scale 0 to 100", "result": 10}, {"measurement": "Plant response rating, Ragweed", "setting": "[10]; 62 g ai/ha, scale 0 to 100", "result": 5}, {"measurement": "Plant response rating, Wheat", "setting": "[11]; 125 g ai/ha, scale of 0 to 100", "result": 5}, {"measurement": "Plant response rating, Wheat", "setting": "[11]; 31 g ai/ha, scale 0 to 100", "result": 0}, {"measurement": "Plant response rating, Wheat", "setting": "[11]; 62 g ai/ha, scale 0 to 100", "result": 0}, {"measurement": "Plant response rating, Blackgrass", "setting": "[12]; 125 g ai/ha, scale of 0 to 100", "result": 90}, {"measurement": "Plant response rating, Blackgrass", "setting": "[12]; 16 g ai/ha, scale 0 to 100", "result": 5}, {"measurement": "Plant response rating, Blackgrass", "setting": "[12]; 31 g ai/ha, scale 0 to 100", "result": 60}, {"measurement": "Plant response rating, Blackgrass", "setting": "[12]; 62 g ai/ha, scale 0 to 100", "result": 60}, {"measurement": "Plant response rating, Foxtail, Giant", "setting": "[13]; 125 g ai/ha", "result": 100}, {"measurement": "Foxtail, Giant plant response rating", "setting": "[13]; 500 g ai/ha", "result": 100}, {"measurement": "Plant response rating, Barnyardgrass", "setting": "[14]; 125 g ai/ha", "result": 100}, {"measurement": "Barnyardgrass plant response rating", "setting": "[14]; 500 g ai/ha", "result": 100}, {"measurement": "Plant response rating, Ragweed", "setting": "[15]; 125 g ai/ha", "result": 20}, {"measurement": "Ragweed plant response rating", "setting": "[15]; 500 g ai/ha", "result": 40}, {"measurement": "Plant response rating, Ryegrass, Italian", "setting": "[16]; 125 g ai/ha", "result": 70}, {"measurement": "Ryegrass, Italian plant response rating", "setting": "[16]; 500 g ai/ha", "result": 100}]}]}
